Data as given in article PMC10810133, “Exploring the inhibitory potential of in silico-designed small peptides on Helicobacter pylori Hp0231 (DsbK), a periplasmic oxidoreductase involved in disulfide bond formation” (Frontiers in Molecular Biosciences, 2024).
Entries after “also recorded” stand apart in the source; their conditions may differ. Read-outs that look alike come from different tables or passages of the source. Residues, ends and D or L forms follow the SMILES beside them.

Key:
Hp0231 [1] = biological target: T1, Hp0231 (Helicobacter pylori, UniProt O25017); experiment: biochemical
T1 sequence (O25017 entry or part of it): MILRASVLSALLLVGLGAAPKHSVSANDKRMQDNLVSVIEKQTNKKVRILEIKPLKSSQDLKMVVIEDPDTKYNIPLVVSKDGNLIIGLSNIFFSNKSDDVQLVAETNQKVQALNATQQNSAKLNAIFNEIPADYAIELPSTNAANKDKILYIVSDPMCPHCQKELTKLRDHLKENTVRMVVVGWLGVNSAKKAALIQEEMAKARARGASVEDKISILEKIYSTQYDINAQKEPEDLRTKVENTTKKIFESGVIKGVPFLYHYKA
Protocol: 2.3.7 Assessment of interactions between inhibitory peptides and Hp0231 or Hp0231APHA using microscale thermophoresis
The purified Hp0231 and Hp0231APHA proteins were suspended in HEPES buffer (20 mM HEPES, 150 mM NaCl, 0.05% (v/v) TWEEN 20, pH 7.4). Protein concentrations were determined by absorption measurements at 280 nm, using the extinction coefficients ε280 = 16,055 M^−1 × cm^−1 for Hp0231 and ε280 = 15,930 M^−1 × cm^−1 for Hp0231APHA, calculated using Quest Calculate™ Protein Concentration Calculator (AAT BioQuest, https://www.aatbio.com/tools/calculate-protein-concentration). After adjusting their concentrations to 200 nM, Hp0231 and Hp0231APHA were labeled using a Monolith His-Tag Labeling Kit RED-tris-NTA (NanoTemper Technologies) according to the manufacturer’s instructions. […] To assess binding interactions between the Hp0231/Hp0231APHA proteins and the inhibitory peptides, MST measurements were performed using a NanoTemper ® Monolith NT.115 instrument (NanoTemper Technologies). Samples were prepared according to the manufacturer’s instructions and loaded in Premium coated capillaries (NanoTemper Technologies). Measurements were performed using MO.Control v1.6.1 (NanoTemper Technologies) software. Medium and high MST power were applied at 25°C. The results were analyzed using MO.Affinity Analysis v2.3 (NanoTemper Technologies) and Origin 2019 (OriginLab Corporation). At least three independent measurements were performed for each sample.

Hp0231APHA = biological target: T2, Hp0231APHA (Helicobacter pylori, UniProt O25017, C159A/C162A); experiment: Microscale thermophoresis (MST) binding of inhibitory peptides to Hp0231APHA (inactive form)
T2 sequence (O25017 1-265 C159A/C162A): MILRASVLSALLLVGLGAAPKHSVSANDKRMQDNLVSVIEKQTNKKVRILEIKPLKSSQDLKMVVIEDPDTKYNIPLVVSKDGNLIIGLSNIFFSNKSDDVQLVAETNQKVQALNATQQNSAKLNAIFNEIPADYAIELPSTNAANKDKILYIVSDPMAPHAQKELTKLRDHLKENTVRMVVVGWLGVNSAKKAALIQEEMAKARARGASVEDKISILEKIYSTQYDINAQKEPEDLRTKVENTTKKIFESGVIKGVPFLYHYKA

Hp0231 [2] = biological target: T1, Hp0231; experiment: Peptide inhibitory activity assay (time-resolved Eu3+ fluorescence peptide oxidation assay); assay type: biochemical; conditions: 160 nM Hp0231, […] GSSG, 8 µM substrate S1 or S2, pH 5.5
Protocol: The peptide oxidation assay was performed as described previously ([Vivian et al., 2009]; [Kurth et al., 2014]) with slight modification. Briefly, peptide substrates (S1—[…]; S2—[…]) with DOTA (1,4,7,10-tetraazacycclododecane-1,4,7,10-tetraacetic acid) coupled at the N-terminus, and a methylcoumarin amide coupled to the Ɛ-amino group of the C-terminal lysine, were custom synthesized by Eurogentec. The lyophilized peptides were resuspended in 100 mM imidazole (pH 6.0) to a concentration of 2 mM. Freshly prepared 100 mM europium trifluoromethanesulfonate (Eu^3+) solution was added to each peptide at a final concentration of 4 mM and the mixtures incubated for 5 min at room temperature to permit Eu^3+ chelation. Eu^3+ was complexed with DOTA in order to facilitate observation of the oxidation rate of cysteine residues in the substrate peptide, leading to the formation of a disulfide bond. This process brings the methylcoumarin antenna into close contact with the DOTA-Eu^3+ fluorophore, resulting in an increase in Eu^3+ fluorescence. Thus, fluorescence could be used to monitor the capacity of Hp0231 or Hp0231APHA to catalyze disulfide bond formation.
Assays were conducted using an Infinite® M Nano + plate reader (Tecan) with an excitation wavelength of 340 nm and emission wavelength 615 nm. There was a 150 µs delay before reading and time-resolved fluorescence was measured over a period of 100 µs. The assay was performed in white 384-well plates (Perkin Elmer, OptiPlate-384). Each well contained 50 μL, which included the reaction buffer consisting of 50 mM MES, 50 mM NaCl, 2 mM EDTA (pH 5.5), 160 nM protein (either Hp0231 or Hp0231APHA), 1.6 mM GSSG (oxidized glutathione) and 8 µM substrate peptide which was added last to initiate the reaction. Three control reactions were included in each experiment: 1) reaction buffer, GSSG and a protein; 2) reaction buffer and substrate peptide; 3) reaction buffer, substrate peptide and GSSG. Measurements were made for three replicate samples and mean values are presented, with the standard error of the mean indicated by error bars. […]

E. coli DsbA = test system: E. coli DsbA; design: method as in Duprez et al. (2015); conditions: ref Duprez et al. (2015); cited from earlier work
[3] = MST, pseudo-titration mode, 25°C, Hp0231, mean of three experiments ± S.D., NB = not binding
[4] = MST, pseudo-titration mode, 25°C, Hp0231APHA (CPHC to APHA, inactive), NB = not binding
[5] = MST, pseudo-titration mode, 25°C, Hp0231APHA (CPHC to APHA, inactive), NB = not binding, read-out: K D

Row | Molecule | K D (Hp0231 [1]; [3]) | Kd (Hp0231APHA) [µM] | Inhibition of Hp0231-catalyzed oxidation of substrate peptides (Eu3+ fluorescence increase) (Hp0231 [2]; inhibitory peptide 0.75 mM) | Kd (Hp0231 [1]; [3]) [µM] | K D (Hp0231APHA; [4]) | Kd (Hp0231APHA; [5]) [µM] | Inhibition of Hp0231-catalyzed oxidation of substrate peptides (Eu3+ fluorescence increase) (Hp0231 [2]; inhibitory peptide 1 mM) | Kd (Hp0231 [1]) [µM] | Kd (E. coli DsbA) [µM]
1 | CC(=O)N[C@@H](Cc1c[nH]cn1)C(=O)N[C@@H](CCC(N)=O)C(=O)N[C@@H](CO)C(=O)N[C@@H](CS)C(=O)N[C@@H](C)C(=O)N[C@@H](CS)C(=O)N[C@@H](CCC(=O)O)C(=O)N[C@@H](CC(C)C)C(N)=O [WAW8] (Ac-HQSCACEL-NH2) | two binding affinities (low and high) | 1.3 ± 0.2 | the reaction rate was significantly reduced | – | – | – | – | – | –
2 | Ac-HQSALYEL-NH2 [WAW6] | – | – | – | > 1000 | did not bind; also recorded: no binding | > 1000 | did not yield a significant alteration in the fluorescence intensity | – | –
3 | Ac-HQSCAYEL-NH2 [WAW7] | low affinity | – | – | – | no interaction | > 1000 | inhibition of the fluorescence intensity increase | 112 ± 21 | –
4 | PSPFATCDF | – | – | – | – | – | – | – | – | 4
